Consider 26 compounds from patent US20170107212A1, “NOVEL COMPOUNDS” (Bayer Pharma Aktiengesellschaft, priority 2014, published 2017).

For orientation: IC50 means the concentration that gives 50% inhibition.

Assay [1] concerns constitutive active colorectal cancer cell (CRC) Wnt pathway, HCT116 TOPFlash. Put plainly: Cellular reporter assay, HCT116 Super TopFlash (constitutive active Wnt pathway), luciferase expression. To be noted: Homo sapiens, HCT-116, 36 h, HCT116 Super TopFlash reporter cells, 36 hours incubation, dilution series 50 μM to 15 nM. It is filed as cell-based. The method, boiled down: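 HCT116 cells stably carrying Super TopFlash (β-catenin ΔS45, constitutive Wnt) run in parallel with FOP control line; compounds 50 μM to 15 nM (3.16-fold) in CAFTY buffer pH 7.4 with 2 mM Ca2+, 0.01% BSA, 36 h at 37 °C. Luciferase luminescence read as Wnt activity.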
Background: In a reporter assay the amount or activity of a reporter protein is the signal.

Assay [2] concerns HCT116 FOPFlash. In words: Control reporter assay, HCT116 FOP control vector (non-functional TCF elements), luciferase expression. To be noted: Homo sapiens, HCT-116, 36 h, HCT116 FOP control reporter cells, 36 hours incubation, dilution series 50 μM to 15 nM. It counts as cell-based. The method, boiled down: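 Stable HCT116 cells carrying FOP vector (randomized non-functional TCF sites) plus pcDNA3, run in parallel with TOP line; compounds 50 μM to 15 nM (3.16-fold steps) added in CAFTY buffer pH 7.4 with 2 mM Ca2+, 0.01% BSA. Incubated 36 h at 37 °C, 5% CO2; luciferase luminescence read.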

Counter-ions that a name gives are not always drawn.

In the case of `O=C(CN1CCOCC1)Nc1cc(C(=O)Nc2nnc(-c3ccncc3)s2)ccc1OC(F)(F)F` [Example 81, 3-[(morpholin-4-ylacetyl)amino]-N-[5-(pyridin-4-yl)-1,3,4-thiadiazol-2-yl]-4-(trifluoromethoxy)benzamide], the IC50 in assay [1] and in assay [2] was at least 50 µM each time.

For the compound `O=C(CN1CCOCC1)Nc1cc(C(=O)Nc2nnc(-c3cccnc3)s2)ccc1OC(F)(F)F` [Example 82, 3-[(morpholin-4-ylacetyl)amino]-N-[5-(pyridin-3-yl)-1,3,4-thiadiazol-2-yl]-4-(trifluoromethoxy)benzamide], the IC50 in assay [1] was 21.2 µM; in assay [2] it was at least 50 µM.

Consider `CN1CCN(CC(=O)Nc2cc(C(=O)Nc3nnc(-c4ccncc4)s3)ccc2OC(F)(F)F)CC1` [Example 83, 3-{[(4-methylpiperazin-1-yl)acetyl]amino}-N-[5-(pyridin-4-yl)-1,3,4-thiadiazol-2-yl]-4-(trifluoromethoxy)benzamide], for which the IC50 in assay [1] was 26.3 µM; in assay [2], at least 50 µM.

Regarding `CN1CCN(CC(=O)Nc2cc(C(=O)Nc3nnc(-c4cccnc4)s3)ccc2Cl)CC1` [Example 84, 4-chloro-3-{[(4-methylpiperazin-1-yl)acetyl]amino}-N-[5-(pyridin-3-yl)-1,3,4-thiadiazol-2-yl]benzamide hydrochloride], the IC50 in assay [1] and in assay [2] was at least 50 µM each time.

Turning to `O=C(Nc1nnc(-c2cccnc2)s1)c1ccc(Cl)c(NC(=O)C2(N3CCN(C4CC4)CC3)CC2)c1` [Example 85, 4-chloro-3-({[1-(4-cyclopropylpiperazin-1-yl)cyclopropyl]carbonyl}amino)-N-[5-(pyridin-3-yl)-1,3,4-thiadiazol-2-yl]benzamide], the IC50 is 12.5 µM in assay [1] and at least 50 µM in assay [2].

With `O=C(CN1CCN(C2CC2)CC1)Nc1cc(C(=O)Nc2nnc(-c3cccnc3)s2)ccc1Cl` [Example 86, 4-chloro-3-{[(4-cyclopropylpiperazin-1-yl)acetyl]amino}-N-[5-(pyridin-3-yl)-1,3,4-thiadiazol-2-yl]benzamide], the IC50 was 44 µM in assay [1] and at least 50 µM in assay [2].

Take `CN1CCN(CC(=O)Nc2cc(C(=O)Nc3nnc(-c4cncnc4)s3)ccc2OC(F)(F)F)CC1` [Example 87, 3-{[(4-methylpiperazin-1-yl)acetyl]amino}-N-[5-(pyrimidin-5-yl)-1,3,4-thiadiazol-2-yl)-4-(trifluoromethoxy)benzamide]: the half-maximal inhibitory concentration (IC50) in assay [1] was 18 µM; in assay [2], at least 50 µM.

In the case of `O=C(CN1CCOCC1)Nc1cc(C(=O)Nc2nnc(-c3cnccn3)s2)ccc1OC(F)(F)F` [Example 88, 3-[(morpholin-4-ylacetyl)amino]-N-[5-(pyrazin-2-yl)-1,3,4-thiadiazol-2-yl]-4-(trifluoromethoxy)benzamide], the IC50 in assay [1] and in assay [2] was at least 50 µM throughout.

`Cc1cccnc1-c1nnc(NC(=O)c2ccc(OC(F)(F)F)c(NC(=O)CN3CCOCC3)c2)s1` [Example 89, N-[5-(3-methylpyridin-2-yl)-1,3,4-thiadiazol-2-yl]-3-[(morpholin-4-ylacetyl)amino]-4-(trifluoromethoxy)benzamide]: the IC50 in assay [1] was 0.845 µM; in assay [2], at least 50 µM.

With `CN1CCN(CC(=O)Nc2cc(C(=O)Nc3nnc(-c4ccnc(N)c4)s3)ccc2OC(F)(F)F)CC1` [Example 90, N-[5-(2-aminopyridin-4-yl)-1,3,4-thiadiazol-2-yl]-3-{[(4-methylpiperazin-1-yl)acetyl]amino}-4-(trifluoromethoxy)benzamide], the IC50 in assay [1] was 7.4 µM; in assay [2] it was 31 µM.

Turning to `Cc1nccnc1-c1nnc(NC(=O)c2ccc(OC(F)(F)F)c(NC(=O)CN3CCOCC3)c2)s1` [Example 91, N-[5-(3-methylpyrazin-2-yl)-1,3,4-thiadiazol-2-yl]-3-[(morpholin-4-ylacetyl)amino]-4-(trifluoromethoxy)benzamide], the IC50 in assay [1] was 35.6 µM; in assay [2], at least 50 µM.

On to `Cc1csc(-c2nnc(NC(=O)c3ccc(OC(F)(F)F)c(NC(=O)CN4CCOCC4)c3)s2)n1` [Example 92, N-[5-(4-methyl-1,3-thiazol-2-yl)-1,3,4-thiadiazol-2-yl]-3-[(morpholin-4-ylacetyl)amino]-4-(trifluoromethoxy)benzamide], for which the figures for the IC50 in assay [1] and in assay [2] were 21.2 µM and at least 50 µM, respectively.

For `Cc1ccnc(-c2nnc(NC(=O)c3ccc(OC(F)(F)F)c(NC(=O)CN4CCOCC4)c3)s2)c1` [Example 93, N-[5-(4-methylpyridin-2-yl)-1,3,4-thiadiazol-2-yl]-3-[(morpholin-4-ylacetyl)amino]-4-(trifluoromethoxy)benzamide], the IC50 in assay [1] and in assay [2] was at least 50 µM in each case.

Turning to `Nc1ncc(-c2nnc(NC(=O)c3ccc(OC(F)(F)F)c(NC(=O)CN4CCOCC4)c3)s2)cn1` [Example 94, N-[5-(2-aminopyrimidin-5-yl)-1,3,4-thiadiazol-2-yl]-3-[(morpholin-4-ylacetyl)amino]-4-(trifluoromethoxy)benzamide], the values for the IC50 in assay [1] and in assay [2] were 23.2 µM and at least 50 µM, respectively.

For the compound `Cc1nc(-c2nnc(NC(=O)c3ccc(OC(F)(F)F)c(NC(=O)CN4CCOCC4)c3)s2)cs1` [Example 95, N-[5-(2-methyl-1,3-thiazol-4-yl)-1,3,4-thiadiazol-2-yl]-3-[(morpholin-4-ylacetyl)amino]-4-(trifluoromethoxy)benzamide], the IC50 in assay [1] is 25.3 µM; in assay [2], at least 50 µM.

For `O=C(CN1CCOCC1)Nc1cc(C(=O)Nc2nnc(-c3ncccc3F)s2)ccc1OC(F)(F)F` [Example 96, N-[5-(3-fluoropyridin-2-yl)-1,3,4-thiadiazol-2-yl]-3-[(morpholin-4-ylacetyl)amino]-4-(trifluoromethoxy}benzamide], the IC50 in assay [1] and in assay [2] was at least 50 µM in each case.

With `CN1CCN(CC(=O)Nc2cc(C(=O)Nc3nnc(-c4cnccn4)s3)ccc2OC(F)(F)F)CC1` [Example 97, 3-{[(4-methylpiperazin-1-yl)acetyl]amino}-N-[5-(pyrazin-2-yl)-1,3,4-thiadiazol-2-yl]-4-(trifluoromethoxy)benzamide], the IC50 in assay [1] is 7.05 µM; in assay [2], at least 50 µM.

Consider `Nc1cc(-c2nnc(NC(=O)c3ccc(OC(F)(F)F)c(NC(=O)CN4CCOCC4)c3)s2)ccn1` [Example 98, N-[5-(2-aminopyridin-4-yl)-1,3,4-thiadiazol-2-yl]-3-[(morpholin-4-ylacetyl)amino)-4-(trifluoromethoxy)benzamide], for which the IC50 in assay [1] and in assay [2] was at least 50 µM in each case.

For the compound `Cc1ncc(-c2nnc(NC(=O)c3ccc(OC(F)(F)F)c(NC(=O)CN4CCN(C)CC4)c3)s2)s1` [Example 99, 3-{[(4-methylpiperazin-1-yl)acetyl)amino}-N-[5-(2-methyl-1,3-thiazol-5-yl)-1,3,4-thiadiazol-2-yl]-4-(trifluoromethoxy)benzamide], the IC50 in assay [1] was 8.55 µM; in assay [2], at least 50 µM.

As to `Cc1ncc(-c2nnc(NC(=O)c3ccc(OC(F)(F)F)c(NC(=O)CN4CCOCC4)c3)s2)s1` [Example 100, N-[5-(2-methyl-1,3-thiazol-5-yl)-1,3,4-thiadiazol-2-yl]-3-[(morpholin-4-ylacetyl)amino]-4-(trifluoromethoxy)benzamide], the IC50 was 41 µM in assay [1] and at least 50 µM in assay [2].

`O=C(CN1CCOCC1)Nc1cc(C(=O)Nc2nnc(-c3nccs3)s2)ccc1OC(F)(F)F` [Example 101, 3-[(morpholin-4-ylacetyl)amino]-N-[5-(1,3-thiazol-2-yl)-1,3,4-thiadiazol-2-yl]-4-(trifluoromethoxy)benzamide]: the IC50 in assay [1] and in assay [2] was at least 50 µM in each case.

Regarding `Cc1cncc(-c2nnc(NC(=O)c3ccc(OC(F)(F)F)c(NC(=O)CN4CCN(C)CC4)c3)s2)n1` [Example 102, 3-{[(4-methylpiperazin-1-yl)acetyl]amino}-N-[5-(6-methylpyrazin-2-yl)-1,3,4-thiadiazol-2-yl]-4-(trifluoromethoxy)benzamide], the results for the IC50 in assay [1] and in assay [2] were 0.18 µM and at least 50 µM, respectively.

For `O=C(CN1CCOCC1)Nc1cc(C(=O)Nc2nnc(-c3cncs3)s2)ccc1OC(F)(F)F` [Example 103, 3-[(morpholin-4-ylacetyl)amino)-N-[5-(1,3-thiazol-5-yl)-1,3,4-thiadiazol-2-yl]-4-(trifluoromethoxy)benzamide], the IC50 in assay [1] was 12.2 µM; in assay [2], at least 50 µM.

Regarding `Nc1ncc(-c2nnc(NC(=O)c3ccc(OC(F)(F)F)c(NC(=O)CN4CCOCC4)c3)s2)s1` [Example 104, N-[5-(2-amino-1,3-thiazol-5-yl)-1,3,4-thiadiazol-2-yl]-3-[(morpholin-4-ylacetyl)amino]-4-(trifluoromethoxy)benzamide], the IC50 in assay [1] was 17.9 µM; in assay [2], at least 50 µM.

With `Cc1scnc1-c1nnc(NC(=O)c2ccc(OC(F)(F)F)c(NC(=O)CN3CCOCC3)c2)s1` [Example 105, N-[5-(5-methyl-1,3-thiazol-4-yl)-1,3,4-thiadiazol-2-yl)-3-[(morpholin-4-ylacetyl)amino]-4-(trifluoromethoxy)benzamide], the IC50 in assay [1] and in assay [2] was at least 50 µM in each case.

Take `COc1ccc(C(=O)Nc2nnc(-c3cnccc3C)s2)cc1NC(=O)CN1CCOCC1` [Example 106, 4-methoxy-N-[5-(4-methylpyridin-3-yl)-1,3,4-thiadiazol-2-yl]-3-[(morpholin-4-ylacetyl)amino]benzamide]: the IC50 in assay [1] and in assay [2] was at least 50 µM in each case.
